Test results taken from publication PMC5041982, “Small-molecule inhibition of STAT3 in radioresistant head and neck squamous cell carcinoma” (Oncotarget, 2016).
Where two headings read alike, the source gives them in different places.

Target: T1, pSTAT1 (Tyr-701) (Homo sapiens, UniProt P42224)
T1 construct: endogenous in cells; host or cells: Kasumi-1
T1 sequence (P42224 1-750): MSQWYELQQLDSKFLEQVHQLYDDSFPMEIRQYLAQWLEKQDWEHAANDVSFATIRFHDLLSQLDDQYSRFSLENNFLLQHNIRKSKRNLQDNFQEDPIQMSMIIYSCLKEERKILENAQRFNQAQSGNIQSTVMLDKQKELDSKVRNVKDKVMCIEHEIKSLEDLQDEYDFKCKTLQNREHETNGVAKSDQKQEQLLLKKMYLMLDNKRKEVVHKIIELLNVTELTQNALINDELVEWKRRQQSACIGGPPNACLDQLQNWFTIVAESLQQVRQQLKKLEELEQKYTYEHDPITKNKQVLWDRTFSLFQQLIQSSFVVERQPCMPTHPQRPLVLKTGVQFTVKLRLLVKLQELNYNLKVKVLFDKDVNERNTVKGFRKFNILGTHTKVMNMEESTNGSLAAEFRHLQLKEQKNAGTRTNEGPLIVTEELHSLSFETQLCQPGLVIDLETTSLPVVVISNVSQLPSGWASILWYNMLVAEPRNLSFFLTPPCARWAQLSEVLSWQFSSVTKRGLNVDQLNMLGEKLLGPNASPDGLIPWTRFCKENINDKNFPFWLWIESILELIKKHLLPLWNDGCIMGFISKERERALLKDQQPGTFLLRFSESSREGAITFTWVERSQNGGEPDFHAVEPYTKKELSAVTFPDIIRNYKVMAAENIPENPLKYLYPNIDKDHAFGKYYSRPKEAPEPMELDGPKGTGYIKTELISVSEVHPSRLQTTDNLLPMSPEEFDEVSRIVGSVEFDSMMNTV
Assay: Phosphoflow, IFN-γ-induced pSTAT1 in Kasumi-1 cells
Assay type: cell-based

COc1ccc(S(=O)(=O)Nc2cc(-c3c(O)ccc4ccccc34)c(O)c3ccccc23)cc1 [Compound C188-9]
IC50 (Figure 2C, Kasumi-1, read-out: Phosphoflow pSTAT1 (Tyr-701) IC50, representative experiment): 13.4 µM | IC50 (Kasumi-1, IFN-γ 10 ng/ml 15 min, mean, n ≥ 2, read-out: Ligand Induced Phosphorylation (Phosphoflow) pSTAT1 (IFN-γ) IC50): 9.6 ± 5.6 µM
